# Reference: ChEMBL document CHEMBL5725356, “Anti-fibrotic pyridinones” (2017)
# Test: ET-1 Assay: Fibroblasts (primary human lung and dermal, HFL-1, 3T3 etc) are seeded in 96-well plates at ~15000 cells/well and serum starved for 0-48 hours. After media exchange, compounds serially diluted in DMSO are added to the cells. After a brief incubation of ~30 min, stimulants (TGFb, serum, LPA etc) are added followed by further incubation for 16-48 hours. Media is then harvested and stored frozen in plate format for later endothelin-1 (ET-1) determination by ELISA. Toxicity measurements are made using the ATPlite kit (Perkin-Elmer). ET-1 is quantified using an ELISA kit (R&D Systems). The amount of ET-1 produced in the assay wells are back-calculated using the ELISA standard. The ability of a compound to inhibit ET-1 production is typically analyzed by fitting dose-response curves to a 4-parameter logistic function to obtain an EC50 value.
# Conditions: HFL1
row,SMILES,EC50
1,CCn1nc2c(-c3cn[nH]c3)cn(-c3ccc(OC(F)(F)F)cc3)c(=O)c2n1,< 50 µM
2,O=c1cc(NCc2ccccn2)ccn1-c1ccc(OC(F)(F)F)cc1,< 50 µM
3,CCn1ccc2c(-c3ccc(F)cc3)cn(-c3ccc(OC(F)(F)F)cc3)c(=O)c21,< 50 µM
4,CCn1cnc2c(-c3cnn(C)c3)cn(-c3ccc(OC(F)(F)F)cc3)c(=O)c21,< 50 µM
5,O=c1c2cccnc2c(-c2cn[nH]c2)cn1-c1ccc(OC(F)(F)F)cc1,> 200 µM
6,CCOc1ccc(CNc2cc(=O)n(-c3ccc(OC(F)(F)F)cc3)cc2-c2cnn(C)c2)c(F)c1,< 50 µM
7,O=c1c(-c2ccc(F)cc2)c(-c2ccc(OC(F)(F)F)cc2)c1=O,< 50 µM
8,CCn1ccc2ccn(-c3ccc(OC(F)(F)F)cc3)c(=O)c21,< 50 µM
9,O=c1c2[nH]ccc2c(-c2ccc(F)cc2)cn1-c1ccc(OC(F)(F)F)cc1,< 50 µM
10,CCOc1ccc(-n2cc(-c3cn[nH]c3)c3ccn(C)c3c2=O)c(C)c1,< 50 µM
11,CCn1cc(-c2cn(-c3ccc(OC(F)(F)F)cc3)c(=O)c3c2ncn3CC)cn1,< 50 µM
12,CCOc1ccc(-n2cc(-c3ccnnc3)c(C)cc2=O)c(C)c1,< 50 µM
13,CCn1ccc2c(-c3cnn(C)c3)c[nH]c(=O)c21,< 50 µM
14,Cn1cc(-c2cn(-c3ccc(Cl)cc3)c(=O)cc2Oc2ccccc2)cn1,< 50 µM
15,CCOc1ccc(-n2cc(-c3cnn(C)c3)c(OCCOC)cc2=O)c(C)c1,< 50 µM
16,Cn1cc(C2=CN(c3ccc(OC(F)(F)F)cc3)CC=C2Oc2ccc(C(N)=O)cc2)cn1,< 50 µM
17,COCCn1ccc2c(-c3cnn(C)c3)cn(-c3ccc(OC(F)(F)F)cc3)c(=O)c21,< 50 µM
18,Cn1ccc2c(-c3cn[nH]c3)cn(-c3ccc(Cl)cc3)c(=O)c21,< 50 µM
19,O=c1c2[nH]ccc2c(-c2cn[nH]c2)cn1-c1ccc(Cl)cc1,< 50 µM
20,Cc1nc2c(-c3cn[nH]c3)cn(-c3ccc(OC(F)(F)F)cc3)c(=O)c2s1,< 50 µM
21,Cn1ccc2c(-c3cn[nH]c3)cn(-c3ccc(OC(F)(F)F)cc3)c(=O)c21,< 50 µM
22,CCOc1ccc(-n2cc(-c3cnn(C)c3)c(NCc3ccccc3)cc2=O)c(C)c1,< 50 µM
23,O=c1c2nccnc2c(-c2cnn(CCO)c2)cn1-c1ccc(OC(F)(F)F)cc1,in the range around 125 µM
24,Cc1cc(=O)n(-c2ccc(OC(F)(F)F)cc2)cc1-c1cccc2[nH]c(=O)oc12,> 200 µM
25,O=c1cc(NCc2ncccn2)ccn1-c1ccc(OC(F)(F)F)cc1,> 200 µM

row,SMILES,EC50
1,CC(=O)Nc1cccc(-n2cc(-c3ccc(F)cc3)c(Oc3ccccc3)cc2=O)c1,< 50 µM
2,O=c1c2[nH]cnc2c(-c2cn[nH]c2)cn1-c1ccc(OC(F)(F)F)cc1,< 50 µM
3,Cn1cc(-c2cn(-c3ccc(OC(F)(F)F)cc3)c(=O)cc2NCc2ncccn2)cn1,> 200 µM
4,Cn1cc(-c2cn(-c3ccc(OC(F)(F)F)cc3)c(=O)c3c2ccn3CCO)cn1,< 50 µM
5,CCn1cnc2c(-c3cnn(C)c3)c[nH]c(=O)c21,in the range around 125 µM
6,CCn1nnc2c(=O)n(-c3ccc(OC(F)(F)F)cc3)cc(-c3cnn(C)c3)c21,< 50 µM
7,Cc1nc2c(-c3cnn(Cc4ccccc4)c3)cn(-c3ccc(OC(F)(F)F)cc3)c(=O)c2s1,< 50 µM
8,Cn1cc(-c2cn(-c3ccc(OC(F)(F)F)cc3)c(=O)c3[nH]ccc23)cn1,< 50 µM
9,Cn1cc(-c2cn(-c3ccc(F)cc3)c(=O)cc2Oc2ccccc2)cn1,< 50 µM
10,CCOc1ccc(CNc2cc(=O)n(-c3ccc(OC(F)(F)F)cc3)cc2-c2cnn(C)c2)cc1,< 50 µM
11,CCOc1ccc(-n2cc(-c3ccc(F)cc3)c(Cl)cc2=O)c(C)c1,> 200 µM
12,Cn1cc(-c2cn(-c3ccc(Cl)cc3)c(=O)c3c2ccn3C)cn1,< 50 µM
13,CCn1ccc2c(=O)n(-c3ccc(OC(F)(F)F)cc3)cc(-c3ccc(F)cc3)c21,< 50 µM
14,Cc1nc2ccn(-c3ccc(OC(F)(F)F)cc3)c(=O)c2s1,> 200 µM
15,CCn1nnc2c(-c3cnn(C)c3)cn(-c3ccc(OC(F)(F)F)cc3)c(=O)c21,< 50 µM
16,Cc1cc(=O)n(-c2ccccc2NC(N)=O)cc1-c1ccc(F)cc1,< 50 µM
17,Cc1nc2c(=O)n(-c3ccc(OC(F)(F)F)cc3)cc(-c3cnn(C)c3)c2o1,< 50 µM
18,CCn1cnc2c(-c3cn[nH]c3)cn(-c3ccc(OC(F)(F)F)cc3)c(=O)c21,< 50 µM
19,O=c1c2nccnc2ccn1-c1ccc(OC(F)(F)F)cc1,< 50 µM
20,COCCOc1ccc(-n2cc(-c3cnn(C)c3)c(Oc3ccccc3)cc2=O)cc1,< 50 µM
21,CCn1ccc2c(-c3ccc(F)cc3)c[nH]c(=O)c21,< 50 µM
22,Cc1cc(=O)n(-c2ccc(OC(F)(F)F)cc2)cc1-c1ccc2c(c1)oc(=O)n2CCO,in the range around 125 µM
23,Cn1cc(-c2cn(-c3ccc(OC(F)(F)F)cc3)c(=O)c3scnc23)cn1,< 50 µM
24,Cn1cc(-c2cn(-c3ccc(OC(F)(F)F)cc3)c(=O)c3[nH]ncc23)cn1,> 200 µM
25,Cn1cc(-c2cn(-c3ccc(OC(F)(F)F)cc3)c(=O)c3c2ncn3C)cn1,< 50 µM

row,SMILES,EC50
1,Cc1nc2c(=O)n(-c3ccc(OC(F)(F)F)cc3)ccc2o1,> 200 µM
2,Cn1cc(-c2cn(-c3ccc(C#N)cc3)c(=O)c3c2ccn3C)cn1,> 200 µM
3,Cc1cc(=O)n(-c2ccc(OC(F)(F)F)cc2)cc1-c1ccc2oc(=O)[nH]c2c1,< 50 µM
4,CCn1nnc2c(-c3cn[nH]c3)cn(-c3ccc(OC(F)(F)F)cc3)c(=O)c21,< 50 µM
5,Cn1cc(-c2cn(-c3ccc(OC(F)(F)F)cc3)c(=O)c3c2ccn3Cc2ccccc2)cn1,< 50 µM
6,Cn1cc(-c2c[nH]c(=O)cc2NCc2ccccn2)cn1,in the range around 125 µM
7,Cc1cc(=O)n(-c2ccc(OC(F)(F)F)cc2)cc1-c1ccc2c(c1)OCC(=O)N2CCO,> 200 µM
8,O=c1c2scnc2c(-c2cn[nH]c2)cn1-c1ccc(OC(F)(F)F)cc1,< 50 µM
9,Cn1cc(-c2cn(-c3ccc(O)cc3)c(=O)cc2Oc2ccccc2)cn1,> 200 µM
10,CCOc1ccc(-n2cc(-c3cn[nH]c3)c3nccnc3c2=O)c(C)c1,< 50 µM
11,Cc1nc2c(=O)n(-c3ccc(OC(F)(F)F)cc3)cc(-c3ccc(F)cc3)c2o1,> 200 µM
12,CCn1c(=O)oc2c(-c3cn(-c4ccc(OC(F)(F)F)cc4)c(=O)cc3C)cccc21,> 200 µM
13,Cn1cc(-c2c[nH]c(=O)c3[nH]ccc23)cn1,< 50 µM
14,O=c1c2[nH]ccc2c(-c2cn[nH]c2)cn1-c1ccc(OC(F)(F)F)cc1,< 50 µM
15,CCOc1ccc(-n2cc(-c3cn[nH]c3)c3cc[nH]c3c2=O)c(C)c1,< 50 µM
16,N#Cc1ccc(-n2cc(-c3cn[nH]c3)c3cc[nH]c3c2=O)cc1,in the range around 125 µM
17,CCn1ccc2c(-c3cnn(CCO)c3)cn(-c3ccc(OC(F)(F)F)cc3)c(=O)c21,< 50 µM
18,Cn1cc(-c2cn(-c3ccc(Cl)cc3)c(=O)c3cccnc23)cn1,> 200 µM
19,COCCOc1ccc(Oc2cc(=O)n(-c3ccc(OC(F)(F)F)cc3)cc2-c2cnn(C)c2)cc1,in the range around 125 µM
20,CC(C)n1ccc2c(-c3cn[nH]c3)cn(-c3ccc(OC(F)(F)F)cc3)c(=O)c21,< 50 µM
21,N#Cc1ccc(-n2cc(-c3cn[nH]c3)c3ncccc3c2=O)cc1,> 200 µM
22,Cc1nc2c(-c3cnn(C)c3)cn(-c3ccc(OC(F)(F)F)cc3)c(=O)c2s1,< 50 µM
23,Cn1cc(-c2c[nH]c(=O)c3[nH]nnc23)cn1,> 200 µM
24,CCn1cc2c(-c3cnn(C)c3)cn(-c3ccc(OC(F)(F)F)cc3)c(=O)c2n1,< 50 µM
25,CCn1c(=O)oc2ccc(-c3cn(-c4ccc(OC(F)(F)F)cc4)c(=O)cc3C)cc21,> 200 µM

row,SMILES,EC50
1,N#Cc1ccc(-n2cc(-c3cn[nH]c3)c3nccnc3c2=O)cc1,> 200 µM
2,Cc1cc(=O)n(-c2cccc(NC(N)=O)c2)cc1-c1cnn(C)c1,< 50 µM
3,Cc1cc(=O)[nH]cc1-c1ccc2c(c1)OCC(=O)N2C,< 50 µM
4,Cn1cc(-c2c[nH]c(=O)cc2NCc2ncccn2)cn1,< 50 µM
5,Cn1ccc2c(-c3cn[nH]c3)cn(-c3ccc(C#N)cc3)c(=O)c21,< 50 µM
6,Cn1cc(-c2cn(-c3ccc(OC(F)(F)F)cc3)c(=O)c3c2ccn3C2CC2)cn1,< 50 µM
7,Cn1cc(-c2cn(-c3ccc(OC(F)(F)F)cc3)c(=O)cc2NCc2cncnc2)cn1,< 50 µM
8,Cn1cc(-c2cn(-c3ccc(OC(F)(F)F)cc3)c(=O)c3[nH]nnc23)cn1,< 50 µM
9,Cn1cc(-c2cn(-c3ccc(Cl)cc3)c(=O)c3[nH]ccc23)cn1,< 50 µM
10,CCn1nc2c(-c3cnn(C)c3)cn(-c3ccc(OC(F)(F)F)cc3)c(=O)c2n1,< 50 µM
11,CCOc1ccc(-n2cc(-c3cn[nH]c3)c3ncccc3c2=O)c(C)c1,< 50 µM
12,CCn1nnc2c(=O)[nH]cc(-c3cnn(C)c3)c21,> 200 µM
13,O=c1c2c(ccn2C2CC2)c(-c2cn[nH]c2)cn1-c1ccc(OC(F)(F)F)cc1,< 50 µM
14,Cc1cc(=O)[nH]cc1-c1cccc2c1OC(F)(F)O2,< 50 µM
15,Cn1cc(-c2cn(-c3cccc(NC(N)=O)c3)c(=O)cc2Oc2ccccc2)cn1,< 50 µM
16,CCn1cnc2c(-c3cnn(C(C)C)c3)cn(-c3ccc(OC(F)(F)F)cc3)c(=O)c21,< 50 µM
17,CCn1c(=O)oc2ccc(-c3c[nH]c(=O)cc3C)cc21,< 50 µM
18,CC(C)n1ccc2c(-c3cnn(C)c3)cn(-c3ccc(OC(F)(F)F)cc3)c(=O)c21,< 50 µM
19,CCn1ccc2c(-c3cn[nH]c3)cn(-c3ccc(OC(F)(F)F)cc3)c(=O)c21,< 50 µM
20,CCOc1ccc(-n2cc(-c3ccc4scnc4c3)c(C)cc2=O)c(C)c1,> 200 µM
21,O=c1c2[nH]ccc2ccn1-c1ccc(OC(F)(F)F)cc1,< 50 µM
22,CCn1cnc2c(=O)n(-c3ccc(OC(F)(F)F)cc3)cc(-c3cnn(C)c3)c21,> 200 µM
23,Cc1cc(=O)n(-c2ccc(F)c(NC(N)=O)c2)cc1-c1ccc(F)cc1,< 50 µM
24,CCOc1ccc(-c2c(-c3ccc(F)cc3)c(=O)c2=O)c(C)c1,< 50 µM
25,Cn1cc(-c2cn(-c3ccc(OC(F)(F)F)cc3)c(=O)cc2NCc2ccc(C#N)cc2F)cn1,< 50 µM
